Measurements taken from patent US12466821B2 (Novartis AG, priority 2018, dated 2025).
Like-named read-outs stand apart in the source and are kept apart here.

Key:
[1] = target: human CMV DNA polymerase UL54 (Human cytomegalovirus (strain AD169) (HHV-5) (Human herpesvirus 5), UniProt P08546); test: CMV polymerase biochemical assay (molecular beacon-based)
Procedure, shortened: (§1)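 Readout was beacon fluorescence (ex 480, em 535 nm), used to derive IC50. Each dNTP was at 1.25 uM, with 200 nM primer and 100 nM beacon, after a 30-min RT inhibitor preincubation. Enzyme was 625 pM for HSV UL30 (20 min RT reaction) or 100 pM for CMV UL54 (60 min RT), both sf9-expressed MBP fusions, in pH 7.5 Tris buffer with MgCl2.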

[2] = target: human HSV DNA polymerase UL30 (Human herpesvirus 1 (strain 17) (HHV-1) (Human herpes simplex virus 1), UniProt P04293); test: HSV polymerase biochemical assay (molecular beacon-based)
Procedure, shortened: as §1

[3] = tested on: Luciferase-encoding HCMV, AD169 strain; test: CMV Luciferase assay (cellular herpesvirus replication); assay type: cell-based
Procedure, shortened: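 Neonatal human dermal fibroblasts were pretreated 1 h with compound (final 0.0159–50 μM or 0.00318–10 μM, 0.5% DMSO), then infected at MOI 1 with AD169 carrying pp28-promoter luciferase. After 72 h at 37 °C, Renilla-Glo luminescence normalized to no-virus and virus-only controls; EC50 by 4-parameter logistic model.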

[4] = Human betaherpesvirus 5, AD169, read-out: CMV-Luc Cellular EC50

Compound | IC50 [1] | IC50 [2] | EC50 ([3]; read-out: CMV-Luc Cellular EC50) | EC50 [3, 4]
Cc1cc(C(=O)NCc2ccc(Cl)cc2)c(=O)n2c1C(=O)N(CC1(S(C)(=O)=O)CC1)CC2 [Example 86-3] | 1.8 nM | 45.3 nM | 34.6 nM | 
N#Cc1ccc(CNC(=O)c2ccc3n(c2=O)CCN(CC2(S(=O)(=O)C4COC4)CC2)C3=O)cc1 [Example 28] | 2.7 nM | 68.7 nM |  | 116 nM
N#Cc1ccc(CNC(=O)c2ccc3n(c2=O)CCN(CCS(=O)(=O)C2CC2)C3=O)cc1 [Example 194] | 103 nM | 855 nM |  | 4220 nM
N#Cc1ccc(CNC(=O)c2ccc3n(c2=O)CCN(CC2(S(=O)(=O)C4(CO)CC4)CC2)C3=O)cc1F [Example 12] | 0.4 nM | 23.5 nM |  | 19.7 nM
CC(=O)N(C)CCN1CCn2c(ccc(C(=O)NCc3ccc(Cl)cc3)c2=O)C1=O [Example 61] | 364 nM | 5560 nM |  | 6340 nM
CC(CN1CCn2c(ccc(C(=O)NCc3ccc(C#N)cc3)c2=O)C1=O)S(=O)(=O)C1CC1 (stereo not drawn) [Example 192] | 194 nM | 3010 nM |  | 8050 nM
CS(=O)(=O)C1(CN2CCn3c(ccc(C(=O)NCc4ccc(Cl)cc4)c3=O)C2=O)CC1 [Example 48] | 3 nM | 51.3 nM |  | 33.3 nM
CN1CCC(S(=O)(=O)C2(CN3CCn4c(ccc(C(=O)NCc5ccc(Cl)cc5)c4=O)C3=O)CC2)C1 (stereo not drawn) [Example 80-2, N-(4-chlorobenzyl)-2-((1-((1-methylpyrrolidin-3-yl)sulfonyl)cyclopropyl)methyl)-1,6-dioxo-2,3,4,6-tetrahydro-1H-pyrido[1,2-a]pyrazine-7-carboxamide] | 9.7 nM | 177 nM |  | 247 nM
CC(C)(C(=O)NS(C)(=O)=O)S(=O)(=O)C1(CN2CCn3c(ccc(C(=O)NCc4ccc(Cl)cc4)c3=O)C2=O)CC1 [Example 176, N-(4-chlorobenzyl)-2-((1-((2-methyl-1-(methylsulfonamido)-1-oxopropan-2-yl)sulfonyl)cyclopropyl)methyl)-1,6-dioxo-1,3,4,6-tetrahydro-2H-pyrido[1,2-a]pyrazine-7-carboxamide] | 4.6 nM | 61.9 nM |  | 7230 nM
CS(=O)(=O)C1(CN2CCn3c(ccc(C(=O)NCc4ncc(Cl)cn4)c3=O)C2=O)CC1 [Example 40] | 480 nM | 28300 nM |  | 10000 nM
O=C(NCc1ccc(Cl)cc1)c1ccc2n(c1=O)CCN(CC1(S(=O)(=O)C3CNC3)CC1)C2=O [Example 19] | 3.9 nM | 149 nM |  | 538 nM
N#Cc1ccc(CNC(=O)c2ccc3n(c2=O)CCN(CC2(S(=O)(=O)C4CCNC4)CC2)C3=O)cc1 (stereo not drawn) [Example 81-3] | 7 nM | 216 nM |  | 1190 nM
CS(=O)(=O)CCCN1CCn2c(c(CO)cc(C(=O)NCc3ccc(Cl)cc3)c2=O)C1=O [Example 139] | 989 nM | 3580 nM |  | 50000 nM
CNS(=O)(=O)C1(CN2CCn3c(ccc(C(=O)NCc4ccc(C#N)cc4)c3=O)C2=O)CC1 [Example 75-2] | 2.7 nM | 77.3 nM |  | 62.2 nM
CS(=O)(=O)N1CCC[C@@H]1CN1CCn2c(ccc(C(=O)NCc3ccc(Cl)cc3)c2=O)C1=O [Example 63] | 420 nM | 19800 nM |  | 12300 nM
CC(CCO)S(=O)(=O)C1(CN2CCn3c(ccc(C(=O)NCc4ccc(C#N)cc4)c3=O)C2=O)CC1 (stereo not drawn) [Example 5, N-(4-cyanobenzyl)-2-((1-((4-hydroxybutan-2-yl)sulfonyl)cyclopropyl)methyl)-1,6-dioxo-2,3,4,6-tetrahydro-1H-pyrido[1,2-a]pyrazine-7-carboxamide] | 2.2 nM | 105 nM |  | 470 nM
O=C(NCc1ccc(Cl)cc1)c1ccc2n(c1=O)CCN(CC1(S(=O)(=O)C3CCC3)CC1)C2=O [Example 78, N-(4-chlorobenzyl)-2-((1-(cyclobutylsulfonyl)cyclopropyl)methyl)-1,6-dioxo-2,3,4,6-tetrahydro-1H-pyrido[1,2-a]pyrazine-7-carboxamide] | 1 nM | 30 nM |  | 15.7 nM
O=C(NCc1ccc(Cl)nc1)c1ccc2n(c1=O)CCN(CC1(S(=O)(=O)C3(CO)CC3)CC1)C2=O [Example 50-2] | 6.4 nM | 72.8 nM |  | 122 nM
CS(=O)(=O)CCCN1CCn2c(c(C(F)F)cc(C(=O)NCc3ccc(Cl)cc3)c2=O)C1=O [Example 145] | 1410 nM | 6820 nM |  | 30200 nM
CCS(=O)(=O)C1(CN2CCn3c(ccc(C(=O)NCc4ccc(C#N)c(F)c4)c3=O)C2=O)CC1 [Example 34] | 1.6 nM | 69.5 nM |  | 41.2 nM
CC1(CS(=O)(=O)C2(CN3CCn4c(ccc(C(=O)NCc5ccc(C#N)c(F)c5)c4=O)C3=O)CC2)CC1 [Example 109, N-(4-cyano-3-fluorobenzyl)-2-((1-(((1-methylcyclopropyl)methyl)sulfonyl)cyclopropyl)methyl)-1,6-dioxo-1,3,4,6-tetrahydro-2H-pyrido[1,2-a]pyrazine-7-carboxamide] | 3.2 nM | 121 nM |  | 112 nM
CCc1cc(C(=O)NCc2ccc(Cl)cc2)c(=O)n2c1C(=O)N(CC1(S(C)(=O)=O)CC1)CC2 [Example 136] | 2.5 nM | 136 nM |  | 86.7 nM
COCC1(S(=O)(=O)C2(CN3CCn4c(ccc(C(=O)NCc5ccc(C#N)cc5)c4=O)C3=O)CC2)CC1 [Example 15] | 0.7 nM | 26 nM |  | 30.2 nM
